Laboratory results: ChEMBL document CHEMBL1143638, “Pyrazolopyridinones as functionally selective GABAA ligands” (Bioorg Med Chem Lett, 2005)

How the values were obtained:
[1] = molecular target: T1, GABA-A receptor; alpha-1/beta-3/gamma-2 (Homo sapiens, UniProt P14867+P18507+P28472); test: Inhibition of [3H]-Ro- 15-1788 binding to human GABA-A receptor alpha-1-beta-3-gamma-2 expressed in L(tk-) cells; assay type: cell-based
T1 sequence (P14867 whole entry): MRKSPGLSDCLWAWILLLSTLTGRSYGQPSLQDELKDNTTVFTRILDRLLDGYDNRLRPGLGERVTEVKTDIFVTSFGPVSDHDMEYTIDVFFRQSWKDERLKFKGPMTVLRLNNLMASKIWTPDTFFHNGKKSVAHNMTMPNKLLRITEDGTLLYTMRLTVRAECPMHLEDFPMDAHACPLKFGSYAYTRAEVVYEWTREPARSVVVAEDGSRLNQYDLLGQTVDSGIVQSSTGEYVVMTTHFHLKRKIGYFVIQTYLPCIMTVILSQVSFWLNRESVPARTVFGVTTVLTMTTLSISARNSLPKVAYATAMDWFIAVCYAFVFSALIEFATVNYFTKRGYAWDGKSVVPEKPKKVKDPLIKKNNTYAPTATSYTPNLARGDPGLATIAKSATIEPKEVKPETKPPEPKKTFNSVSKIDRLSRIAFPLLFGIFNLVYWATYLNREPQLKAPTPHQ
T1 sequence (P18507 whole entry): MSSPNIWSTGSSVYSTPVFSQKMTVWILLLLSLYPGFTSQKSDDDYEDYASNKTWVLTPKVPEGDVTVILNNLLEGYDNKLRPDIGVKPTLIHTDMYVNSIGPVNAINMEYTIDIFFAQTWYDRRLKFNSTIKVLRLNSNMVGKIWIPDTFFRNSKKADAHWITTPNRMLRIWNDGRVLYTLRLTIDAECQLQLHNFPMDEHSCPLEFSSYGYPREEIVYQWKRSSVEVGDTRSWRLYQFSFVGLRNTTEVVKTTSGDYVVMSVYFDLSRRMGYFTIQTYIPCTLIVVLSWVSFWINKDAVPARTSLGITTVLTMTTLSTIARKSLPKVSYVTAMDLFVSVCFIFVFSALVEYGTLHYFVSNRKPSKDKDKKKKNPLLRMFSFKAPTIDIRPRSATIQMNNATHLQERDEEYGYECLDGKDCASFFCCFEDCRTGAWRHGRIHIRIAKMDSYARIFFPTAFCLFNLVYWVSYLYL
T1 sequence (P28472 whole entry): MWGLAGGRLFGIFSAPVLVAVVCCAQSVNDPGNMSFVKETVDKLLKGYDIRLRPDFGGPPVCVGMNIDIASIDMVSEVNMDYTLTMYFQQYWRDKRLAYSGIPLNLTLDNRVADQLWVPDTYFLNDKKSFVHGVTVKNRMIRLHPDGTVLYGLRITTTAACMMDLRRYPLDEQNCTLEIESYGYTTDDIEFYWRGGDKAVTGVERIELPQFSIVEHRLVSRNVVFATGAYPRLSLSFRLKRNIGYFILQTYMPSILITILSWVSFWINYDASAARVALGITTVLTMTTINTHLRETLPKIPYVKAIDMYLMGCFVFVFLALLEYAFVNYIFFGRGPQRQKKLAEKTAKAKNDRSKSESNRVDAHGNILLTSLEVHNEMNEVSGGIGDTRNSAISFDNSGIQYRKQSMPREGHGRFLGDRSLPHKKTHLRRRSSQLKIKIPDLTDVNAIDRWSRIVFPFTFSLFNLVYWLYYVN

[2] = molecular target: T2, GABA-A receptor; alpha-3/beta-3/gamma-2 (Homo sapiens, UniProt P18507+P28472+P34903); test: Inhibition of [3H]-Ro- 15-1788 binding to human GABA-A receptor alpha-3-beta-3-gamma-2 expressed in L(tk-) cells; assay type: cell-based
T2 sequence (P18507 whole entry): T1 sequence (P18507 whole entry)
T2 sequence (P28472 whole entry): T1 sequence (P28472 whole entry)
T2 sequence (P34903 whole entry): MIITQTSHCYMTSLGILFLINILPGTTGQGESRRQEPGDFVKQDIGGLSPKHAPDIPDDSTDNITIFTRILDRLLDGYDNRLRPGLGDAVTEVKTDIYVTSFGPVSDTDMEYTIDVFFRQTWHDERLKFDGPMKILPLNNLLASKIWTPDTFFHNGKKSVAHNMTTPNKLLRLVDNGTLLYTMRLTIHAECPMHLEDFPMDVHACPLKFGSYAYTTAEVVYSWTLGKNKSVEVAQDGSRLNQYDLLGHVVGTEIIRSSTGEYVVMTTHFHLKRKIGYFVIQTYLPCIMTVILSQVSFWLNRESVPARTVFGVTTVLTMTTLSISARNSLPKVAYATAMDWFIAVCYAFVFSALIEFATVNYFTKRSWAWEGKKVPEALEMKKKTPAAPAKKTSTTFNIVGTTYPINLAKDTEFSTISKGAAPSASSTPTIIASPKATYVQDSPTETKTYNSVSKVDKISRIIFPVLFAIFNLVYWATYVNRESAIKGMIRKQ

[3] = molecular target: T3, GABA-A receptor; alpha-1/beta-3/gamma-2 (Homo sapiens) (UniProt P14867+P18507+P28472); test: Effective current to modulate GABA-mediated chloride ion flux through GABA-A receptor alpha-1-beta-3-gamma-2 expressed in L(tk-) cells; assay type: functional, cell-based
[4] = molecular target: T4, GABA-A receptor; alpha-3/beta-3/gamma-2 (Homo sapiens) (UniProt P18507+P28472+P34903); test: Effective current to modulate GABA-mediated chloride ion flux through GABA-A receptor alpha-3-beta-3-gamma-2 expressed in L(tk-) cells; assay type: functional, cell-based
[5] = molecular target: T3, GABA-A receptor; alpha-1/beta-3/gamma-2 (Homo sapiens); test: Effective concentration to modulate GABA-mediated chloride ion flux through GABA-A receptor alpha-1-beta-3-gamma-2 expressed in L(tk-) cells; assay type: functional, cell-based
[6] = molecular target: T4, GABA-A receptor; alpha-3/beta-3/gamma-2 (Homo sapiens); test: Effective concentration to modulate GABA-mediated chloride ion flux through GABA-A receptor alpha-3-beta-3-gamma-2 expressed in L(tk-) cells; assay type: functional, cell-based

- Ki [1]: 0.29 nM
- Ki [2]: 1.5 nM
- Efficacy [3]: 0.21
- Efficacy [4]: 0.45
- Efficacy [5]: 0.14
- Efficacy [6]: 0.38
Compound: O=c1c2c[nH]c3c(c-2nn1-c1ccc(Cl)cc1)CCCC3
